{
  "source": "PubChem BioAssay (NCI)",
  "test_in_all_cases": "NCI anticancer screen, dose series, 48 h",
  "key": {"[1]": {"system": "UO-31 renal"}, "[2]": {"system": "MDA-MB-435"}, "[3]": {"system": "SK-MEL-2 melanoma"}, "[4]": {"system": "OVCAR-5 ovarian"}, "[5]": {"system": "A549 NSCLC"}, "[6]": {"system": "M14 melanoma"}, "[7]": {"system": "U251 CNS"}, "[8]": {"system": "LOX IMVI melanoma"}, "[9]": {"system": "EKVX NSCLC"}, "[10]": {"system": "OVCAR-4 ovarian"}, "[11]": {"system": "UACC-257 melanoma"}, "[12]": {"system": "MDA-MB-231 breast"}, "[13]": {"system": "SN12C renal"}, "[14]": {"system": "RXF 393 renal"}, "[15]": {"system": "ACHN renal"}, "[16]": {"system": "A498 renal"}, "[17]": {"system": "UACC-62 melanoma"}, "[18]": {"system": "SNB-75 CNS"}, "[19]": {"system": "SK-OV-3 ovarian"}, "[20]": {"system": "DU-145 prostate"}, "[21]": {"system": "CAKI-1 renal"}, "[22]": {"system": "HCT-116 colon"}, "[23]": {"system": "HS 578T breast"}, "[24]": {"system": "SW-620 colon"}, "[25]": {"system": "SF-539 CNS"}, "[26]": {"system": "OVCAR-8 ovarian"}, "[27]": {"system": "NCI-H226 lung"}, "[28]": {"system": "NCI/ADR-RES ovarian"}, "[29]": {"system": "OVCAR-3 ovarian"}, "[30]": {"system": "MDA-N"}, "[31]": {"system": "MALME-3M melanoma"}, "[32]": {"system": "COLO 205 colon"}, "[33]": {"system": "BT-549 breast"}, "[34]": {"system": "786-0 renal"}, "[35]": {"system": "RPMI-8226 leukemia"}, "[36]": {"system": "SK-MEL-28 melanoma"}, "[37]": {"system": "HCC-2998 colon"}, "[38]": {"system": "K-562 leukemia"}, "[39]": {"system": "SF-268 CNS"}, "[40]": {"system": "SF-295 CNS"}, "[41]": {"system": "SK-MEL-5 melanoma"}, "[42]": {"system": "NCI-H23 lung"}, "[43]": {"system": "CCRF-CEM leukemia"}, "[44]": {"system": "MCF7 breast"}, "[45]": {"system": "HCT-15 colon"}, "[46]": {"system": "KM12 colon"}, "[47]": {"system": "TK-10 renal"}, "[48]": {"system": "MOLT-4 leukemia"}, "[49]": {"system": "NCI-H460 lung"}, "[50]": {"system": "HT29 colon"}, "[51]": {"system": "HOP-92 NSCLC"}, "[52]": {"system": "PC-3 prostate"}, "[53]": {"system": "HL-60(TB) leukemia"}, "[54]": {"system": "HOP-62 NSCLC"}, "[55]": {"system": "SNB-19 CNS"}},
  "note": "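48-hour exposure; five concentrations; linearly interpolated endpoints. TGI denotes the concentration required for complete inhibition of growth.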",
  "data": [
    {"molecule": "COc1cccc2c(=O)c3c(O)c4cc(N(C)C)ccc4c(OC(C)=O)c3oc12", "values": [
      {"measurement": "TGI", "setting": "[1]", "value": 36.4, "unit": "µM"},
      {"measurement": "TGI", "setting": "[2]", "value": 31.4, "unit": "µM"},
      {"measurement": "TGI", "setting": "[3]", "value": 46.9, "unit": "µM"},
      {"measurement": "TGI", "setting": "[4]", "value": "> 100", "unit": "µM"},
      {"measurement": "TGI", "setting": "[5]", "value": "> 100", "unit": "µM"},
      {"measurement": "TGI", "setting": "[6]", "value": 29.9, "unit": "µM"},
      {"measurement": "TGI", "setting": "[7]", "value": 30.2, "unit": "µM"},
      {"measurement": "TGI", "setting": "[8]", "value": 24.3, "unit": "µM"},
      {"measurement": "TGI", "setting": "[9]", "value": 25.8, "unit": "µM"},
      {"measurement": "TGI", "setting": "[10]", "value": 32, "unit": "µM"},
      {"measurement": "TGI", "setting": "[11]", "value": 32.2, "unit": "µM"},
      {"measurement": "TGI", "setting": "[12]", "value": 25, "unit": "µM"},
      {"measurement": "TGI", "setting": "[13]", "value": 25.5, "unit": "µM"},
      {"measurement": "TGI", "setting": "[14]", "value": 18.6, "unit": "µM"},
      {"measurement": "TGI", "setting": "[15]", "value": 32.8, "unit": "µM"},
      {"measurement": "TGI", "setting": "[16]", "value": 60.8, "unit": "µM"},
      {"measurement": "TGI", "setting": "[17]", "value": 28, "unit": "µM"},
      {"measurement": "TGI", "setting": "[18]", "value": 51.4, "unit": "µM"},
      {"measurement": "TGI", "setting": "[19]", "value": "> 100", "unit": "µM"},
      {"measurement": "TGI", "setting": "[20]", "value": 37.5, "unit": "µM"},
      {"measurement": "TGI", "setting": "[21]", "value": 16.9, "unit": "µM"},
      {"measurement": "TGI", "setting": "[22]", "value": 26.8, "unit": "µM"},
      {"measurement": "TGI", "setting": "[23]", "value": 69.5, "unit": "µM"},
      {"measurement": "TGI", "setting": "[24]", "value": 22.4, "unit": "µM"},
      {"measurement": "TGI", "setting": "[25]", "value": 40.4, "unit": "µM"},
      {"measurement": "TGI", "setting": "[26]", "value": 37.4, "unit": "µM"},
      {"measurement": "TGI", "setting": "[27]", "value": 75.3, "unit": "µM"},
      {"measurement": "TGI", "setting": "[28]", "value": 60.5, "unit": "µM"},
      {"measurement": "TGI", "setting": "[29]", "value": 13.6, "unit": "µM"},
      {"measurement": "TGI", "setting": "[30]", "value": 27.8, "unit": "µM"},
      {"measurement": "TGI", "setting": "[31]", "value": 8.96, "unit": "µM"},
      {"measurement": "TGI", "setting": "[32]", "value": 17.8, "unit": "µM"},
      {"measurement": "TGI", "setting": "[33]", "value": 21.9, "unit": "µM"},
      {"measurement": "TGI", "setting": "[34]", "value": 24, "unit": "µM"},
      {"measurement": "TGI", "setting": "[35]", "value": 52.6, "unit": "µM"},
      {"measurement": "TGI", "setting": "[36]", "value": 22.3, "unit": "µM"},
      {"measurement": "TGI", "setting": "[37]", "value": 32.5, "unit": "µM"},
      {"measurement": "TGI", "setting": "[38]", "value": 97.4, "unit": "µM"},
      {"measurement": "TGI", "setting": "[39]", "value": 68.4, "unit": "µM"},
      {"measurement": "TGI", "setting": "[40]", "value": "> 100", "unit": "µM"},
      {"measurement": "TGI", "setting": "[41]", "value": 25.1, "unit": "µM"},
      {"measurement": "TGI", "setting": "[42]", "value": 38.4, "unit": "µM"},
      {"measurement": "TGI", "setting": "[43]", "value": 13.8, "unit": "µM"},
      {"measurement": "TGI", "setting": "[44]", "value": 61.7, "unit": "µM"},
      {"measurement": "TGI", "setting": "[45]", "value": 25.3, "unit": "µM"},
      {"measurement": "TGI", "setting": "[46]", "value": 34.8, "unit": "µM"},
      {"measurement": "TGI", "setting": "[47]", "value": 29.3, "unit": "µM"},
      {"measurement": "TGI", "setting": "[48]", "value": 40.5, "unit": "µM"},
      {"measurement": "TGI", "setting": "[49]", "value": 50.2, "unit": "µM"},
      {"measurement": "TGI", "setting": "[50]", "value": 27.1, "unit": "µM"},
      {"measurement": "TGI", "setting": "[51]", "value": 39.3, "unit": "µM"},
      {"measurement": "TGI", "setting": "[52]", "value": 56.7, "unit": "µM"},
      {"measurement": "TGI", "setting": "[53]", "value": 14.2, "unit": "µM"},
      {"measurement": "TGI", "setting": "[54]", "value": 41.5, "unit": "µM"},
      {"measurement": "TGI", "setting": "[55]", "value": 91.6, "unit": "µM"}
    ]}
  ]
}
